# Experimental data: patent US9296687B2, “Modulators of HSP70/DnaK function and methods of use thereof” (The Trustees of the University of Pennsylvania, priority 2008, dated 2016)
# Peptide text beside a SMILES is read from it. * marks the point of attachment. Cbz = O=C(OCc1ccccc1)*; CH2F = FC*
# How the values were obtained:
# [1] = target: T1, HSP70 (Homo sapiens, UniProt P0DMV8); test: In vitro binding of B-PES on NeutrAvidin resins to 35S-labelled in vitro translated protein
# Target sequence in this assay (P0DMV8 whole entry): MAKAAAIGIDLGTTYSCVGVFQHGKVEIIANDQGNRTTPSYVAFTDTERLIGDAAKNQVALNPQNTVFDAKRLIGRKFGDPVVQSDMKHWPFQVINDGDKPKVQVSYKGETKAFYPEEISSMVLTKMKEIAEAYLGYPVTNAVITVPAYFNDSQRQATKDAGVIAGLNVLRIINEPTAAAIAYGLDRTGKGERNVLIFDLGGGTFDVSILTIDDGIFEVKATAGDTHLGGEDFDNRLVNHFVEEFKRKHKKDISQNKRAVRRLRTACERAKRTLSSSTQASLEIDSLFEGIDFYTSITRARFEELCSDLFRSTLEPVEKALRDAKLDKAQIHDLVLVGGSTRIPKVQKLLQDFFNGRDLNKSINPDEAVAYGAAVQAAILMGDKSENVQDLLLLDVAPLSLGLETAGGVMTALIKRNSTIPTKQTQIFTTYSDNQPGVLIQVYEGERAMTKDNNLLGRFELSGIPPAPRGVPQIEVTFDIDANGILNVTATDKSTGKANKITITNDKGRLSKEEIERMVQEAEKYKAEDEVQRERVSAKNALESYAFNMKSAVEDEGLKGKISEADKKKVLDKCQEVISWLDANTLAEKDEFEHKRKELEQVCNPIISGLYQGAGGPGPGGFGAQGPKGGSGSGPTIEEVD
# [2] = target: T1, HSP70; test: Capture of HA-tagged HSP70 constructs from transfected H1299 cells with biotinylated compound; assay type: binding; design: expressed in transfected cells; host or cells: H1299
# Procedure: FIG. 1. PES Binds to HSP70. (A) Whole cell extracts (WCE) prepared from A875 and BCL-xL over-expressing U2OS human osteosarcoma cells (BX-U2OS) cells, treated with Biotin or Biotin-PES (B-PES), were captured using NeutrAvidin agarose resins. HSP70-family proteins were identified as the major product in the excised band of ˜70 kDa shown in both Coomassie gels. (B and C) WCE were prepared from the cell lines indicated following 24 h treatment with 20 μM Biotin or B-PES and examined for the expression of proteins indicated (left panel of B and C) by western blot analysis; note that different exposure times were used to visualize these proteins. […] (D) In vitro evidence for an interaction between B-PES and HSP70. Full-length human HSP70 and human HSP90 proteins were in vitro translated in the presence of ^35S-methionine, mixed with B-PES coupled to NeutrAvidin resins, and eluted using 100 mM DTT. The resulting DTT eluates were separated by polyacrylamide gel electrophoresis (SDS-PAGE) and visualized by autoradiography. (E) B-PES interacts with the C-terminal region of HSP70. H1299 cells were transfected with the indicated hemagglutinin (HA)-tagged constructs and exposed to B-PES. B-PES containing complexes were captured by NeutrAvidin Resins, eluted following 100 mM DTT treatment, and immunoblotted with anti-HA antibody following SDS-PAGE. (F) Non-transformed human IMR90 fibroblasts or H1299 lung carcinoma cells were treated with the indicated concentrations of PES for 24 h and cell viability was determined by MTT assays. (G) WCE were prepared from the cell lines indicated following 5 hr treatment with 20 μM PES or B-PES and examined for the expression of proteins indicated (left panel) by western blot analysis; note that different exposure times were used to visualize these proteins. B-PES-containing complexes were captured by NeutrAvidin resins, eluted following 50 mM DTT treatment, and immunoblotted using the indicated antibodies.
# The free amide group of PES-Cl was biotinylated and added to HA-tagged HSP70-transfected H1299 cells. The treatment of the cells occurred for 6 hours. The complexes were pulled down with NeutrAvidin beads, eluted with 100 mM DTT treatments, separated with SDS-PAGE and detected with anti-HA antibody (Millipore) by Western blot.
# Docking studies were performed using the C-terminal HSP70 crystal structure (FIG. 32) to elucidate the PES binding site in silico (FIG. 33). Blind docking methods were used in the program AutoDock to locate potential PES binding sites. These methods use a course grid docking approach, encompassing the entire protein, to identify favorable binding sites using a known binding ligand, and are examined by hand to support the AutoDock data. […]
# [3] = target: T1, HSP70; test: Biotin-PES complexes captured with NeutrAvidin resins from treated cells, IP-WB; details: 20 μM
# Target sequence in this assay (P0DMV8 whole entry): as above
# [4] = target: HSC70 (Homo sapiens, UniProt P11142); test: as above; details: 20 μM
# HSC70, sequence (P11142 whole entry): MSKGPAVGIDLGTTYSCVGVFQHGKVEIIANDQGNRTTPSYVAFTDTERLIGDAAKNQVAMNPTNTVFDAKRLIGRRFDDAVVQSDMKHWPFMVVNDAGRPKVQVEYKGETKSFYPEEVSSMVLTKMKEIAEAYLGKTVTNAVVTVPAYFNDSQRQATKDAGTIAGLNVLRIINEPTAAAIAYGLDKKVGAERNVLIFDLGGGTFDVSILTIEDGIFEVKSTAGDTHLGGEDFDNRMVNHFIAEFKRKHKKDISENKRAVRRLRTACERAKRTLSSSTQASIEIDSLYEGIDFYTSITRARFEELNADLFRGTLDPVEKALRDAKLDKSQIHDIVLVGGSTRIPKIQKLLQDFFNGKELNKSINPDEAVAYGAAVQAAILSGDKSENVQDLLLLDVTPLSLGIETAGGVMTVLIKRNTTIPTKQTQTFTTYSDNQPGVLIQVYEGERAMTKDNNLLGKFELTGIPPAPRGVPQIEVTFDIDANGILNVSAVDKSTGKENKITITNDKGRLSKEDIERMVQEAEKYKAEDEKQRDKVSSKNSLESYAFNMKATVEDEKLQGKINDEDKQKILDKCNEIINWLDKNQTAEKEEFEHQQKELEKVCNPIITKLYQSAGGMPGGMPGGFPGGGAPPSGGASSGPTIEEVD
# [5] = target: GRP78 (Homo sapiens, UniProt P11021); test: as above; details: 20 μM, 24 h
# GRP78, sequence (P11021 19-654): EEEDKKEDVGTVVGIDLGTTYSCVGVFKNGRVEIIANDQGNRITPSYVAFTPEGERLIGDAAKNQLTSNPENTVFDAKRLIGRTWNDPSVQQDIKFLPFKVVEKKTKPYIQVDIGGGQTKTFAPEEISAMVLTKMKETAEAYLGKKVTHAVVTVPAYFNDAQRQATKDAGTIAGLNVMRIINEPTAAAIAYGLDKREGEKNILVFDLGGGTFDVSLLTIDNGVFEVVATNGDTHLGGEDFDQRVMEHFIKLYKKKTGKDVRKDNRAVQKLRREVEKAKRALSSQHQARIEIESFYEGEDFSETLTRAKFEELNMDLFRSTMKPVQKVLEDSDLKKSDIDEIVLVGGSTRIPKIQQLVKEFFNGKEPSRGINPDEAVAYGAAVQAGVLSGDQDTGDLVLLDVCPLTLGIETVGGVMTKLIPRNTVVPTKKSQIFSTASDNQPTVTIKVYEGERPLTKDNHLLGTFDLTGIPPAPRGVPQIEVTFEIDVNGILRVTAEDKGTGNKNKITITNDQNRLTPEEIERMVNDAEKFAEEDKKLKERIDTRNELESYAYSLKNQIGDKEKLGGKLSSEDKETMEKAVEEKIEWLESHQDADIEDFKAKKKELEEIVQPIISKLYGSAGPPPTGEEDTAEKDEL
# [6] = test system: HSP90; test: as above; details: 20 μM, 24 h
# [7] = target: T1, HSP70; test: Competition of untagged PES with B-PES for HSP70; assay type: binding; design: endogenous in cells; host or cells: human tumor cell lines (A875, BX-U2OS, U2OS, H1299, MiaPaCa2, HepG2, SKBR3, 293T); details: purified HSP70, 0.25 mM B-PES, 0.125 mM untagged PES
# Procedure: FIG. 15. Evidence supporting HSP70 as the cellular target of PES. (A) Competition studies in vivo support HSP70 as a PES target. H1299 cells were either pre-treated with DMSO or excess (25×) untagged PES for 1 h prior to the addition of 20 μM Biotin-PES (B-PES) for 5 h, and examined for the expression of proteins indicated (left). B-PES-containing complexes were captured by NeutrAvidin Resins, and immunoblotted using the indicated antibodies. […] (B) Competition studies in vitro support HSP70 as a PES target. Purified HSP70 protein was incubated with 0.25 mM B-PES in the absence and in the presence of 0.125 mM untagged PES.
# Target sequence in this assay (P0DMV8 whole entry): as the sequence (P0DMV8 whole entry) above
# [8] = test system: p62/SQSTM1, LC3; test: Autophagy markers in cultured cells (vacuoles, LC3-II, p62/SQSTM1, electron microscopy); assay type: cell-based, human; details: for p62/SQSTM1 oligomers in soluble and detergent-insoluble fractions: 24 h, PES 20 μM, Velcade 100 nM, CQ 50 μM, 17-AAG 15 nM
# [9] = test system: caspase-3, caspase-8; test: Western blot for caspase cleavage; assay type: cell-based, human; details: U2OS, 20 μM pretreatment 1 h
# [10] = test system: tumor cell lines; test: MTT cell viability assay; assay type: cell-based, human; details: 20 μM pretreatment 1 h, then 20 μM PES 24 h
# Procedure: Cell viability assays were performed using an MTT (methyl thiazolyl tetrazolium) colorimetric assay (Roche Applied Science, Cat. No. 11 465 007 001), with the following modifications. Briefly, cells (1×10^4) were plated into 24 well-assay plates in 0.5 ml media and allowed to attach overnight. […] After the incubation period, 50 μl of the water-soluble MTT labeling reagent [3-[4,5-dimethylthiazol-2-yl]-2,5-diphenyl tetrazolium bromid] were added to the cells, and the cells were incubated for 4 h in a humidified chamber at 37° C. with 5% CO2. The metabolized insoluble formazan crystals were then solubilized using 0.5 ml of the Solubilization solution (10% SDS in 0.01M HCl) per well, and the resulting colored solutions were spectrophotometrically quantified at an absorbance of 570 nm.
# [11] = test system: 20S proteasome; test: Cell-based 20S proteasome activity assay; design: species or system human; details: H1299 or A875 cells; PES 20 μM, 17-AAG 1 μM, CQ 5 μM
# [12] = test system: EGFR, HER2/ErbB2, AKT; test: Western blot of HSP70/HSP90 client proteins in detergent-soluble and detergent-insoluble fractions; assay type: cell-based, human
# Procedure: FIG. 17. PES impairs the proteasome system. (A) Cell-based 20S proteasome activity assay of H1299 or A875 human tumor cells treated with DMSO, 20 μM PES, 100 nM Velcade (proteasome inhibitor), 1 μM 17-AAG (HSP90 inhibitor), 5 μM CQ (lysosome inhibitor), or 20S proteasome inhibitor epigallocatechin gallate (EGCG). Each graphical representation indicates the mean±SD of at least three independent cultures relative to control (DMSO-treated) cells. (B) Cell extracts from SKBR3 human breast carcinoma cells, treated either with 20 μM PES or 1 μM 17-AAG for 24 h, were immunoprecipitated (IP) using anti-HSP70 or anti-HSP90 antibody. […] MTT assays of MCF7 human breast carcinoma cells pretreated with DMSO, or 5 μM PES for 1 h, followed by the addition of indicated amount of 17-AAG for 47 h. The results represent the mean±SD of at least three independent analysis of cultures relative to control (DMSO-treated) cells. (D and E) H1299 cells (D) or SKBR3 cells (E) were treated with DMSO, 20 μM PES, 17-AAG, or 17-AAG plus bortezomib (Velcade) as indicated; harvested in 1% NP-40 containing lysis buffer; fractionated into detergent-soluble and detergent-insoluble preparations; and assayed by western blot.
# FIG. 18. Accumulation of HSP90 client proteins in the protein detergent-insoluble fraction following PES. (A) SKOV3 cells were treated with DMSO, 10 μM PES, or 20 μM PES for 24 h. Note the marked accumulation of EGFR, HER2/ErbB2, and AKT in the detergent-insoluble fraction following 20 μM PES treatment. (B and C) SKOV3 (B) or SKBR3 (C) cells were treated with DMSO, 20 μM PES, or 1 μM 17-AAG, as indicated, for 24 h. Cells were harvested in 1% NP-40 containing lysis buffer, fractionated into detergent-soluble and detergent-insoluble preparations, and assayed by western blot for the proteins indicated.
# The HSP70 and HSC70 proteins bind to exposed hydrophobic regions of nascent-, translocating-, misfolded- or partially unfolded-proteins. These ATP-dependent molecular chaperones act in multi-protein complexes in conjunction with one or more regulatory co-chaperones to carry out multiple cellular functions. […] This is illustrated for H1299 cells treated with 10 or 20 μM PES for 24 h. […] This correlates with a reduced abundance of complexes containing HSP70, or HSC70, together with client proteins or co-chaperones (FIGS. 19A and 19B). […] However, since HSP70/HSC70 act as critical co-chaperones for HSP90, for example in client protein recruitment, PES-mediated alteration in the function of the 70-kDa molecular chaperones could be reflected in an altered behavior or expression of many client proteins. To test this idea, we examined the expression of a few well-established HSP90 client proteins, including the transmembrane tyrosine kinase receptors EGFR and HER2/ERBB2, and the downstream signaling factor AKT. These proteins are overexpressed, or aberrantly expressed, in a variety of human tumors, and have been implicated in cancer etiology and pathology. As a control for these studies, we compared the effects of PES to that of the well-established HSP90 inhibitor, 17-allylamino-17-demethoxygeldanamycin (17-AAG). 17-AAG interacts with the N-terminal region of HSP90 and inhibits its ATPase activity; this disrupts interactions of HSP90 with client proteins and leads to client-protein degradation via the ubiquitin-proteasome pathway (Whitesell, et al. 2005; Neckers, et al. 2007). To examine the expression of some HSP70/HSP90 clients, we used western blot analysis of detergent-soluble (clarified) whole cell extracts.
structure (smiles),measurement,setting,value
O=C(CCCCC1SCC2NC(=O)NC21)NCCSSCCC(=O)NS(=O)(=O)C#Cc1ccccc1 (centres unmarked) [B-PES],interaction with in vitro translated HSP70,[1],interacts with in vitro translated HSP70
same,interaction with amino-terminal ATPase domain of HSP70,[2]; amino acids 2-385,not the amino-terminal ATPase domain
same,interaction with carboxyl-terminal substrate-binding domain of HSP70,[2]; amino acids 386-641,interacts with the carboxyl-terminal substrate-binding domain
same,HSP70 captured with B-PES,[3]; IMR90 fibroblasts,did not observe a PES interaction
same,interaction with endogenous HSP70,"[3]; several cell lines, 24 h",interacts with HSP70
same,HSP70 captured with B-PES,"[3]; tumor cells, 5 hr (FIG. 1G)",found together with this small molecule
same,interaction with endogenous HSC70,[4]; 24 h,no detectable interaction
same,HSC70 captured with B-PES,[4]; IMR90 fibroblasts,did not observe a PES interaction
same,HSC70 captured with B-PES,"[4]; tumor cells, 5 hr (FIG. 1G)",found together with this small molecule
same,interaction with endogenous GRP78,[5],no detectable interaction
same,interaction with endogenous HSP90,[6],no detectable interaction
same,B-PES/HSP70 complex formation,[7],direct interaction between B-PES and HSP70
"CC(C)C[C@H](NC(=O)[C@H](Cc1ccccc1)NC(=O)c1cnccn1)B(O)O [Velcade, bortezomib]",p62/SQSTM1 oligomers in soluble and detergent-insoluble fractions,[8],promoted p62/SQSTM1 oligomerization primarily in the detergent-insoluble fraction
COC(=O)C[C@H](NC(=O)[C@H](C)NC(=O)[C@@H](NC(=O)OCc1ccccc1)C(C)C)C(=O)CF [Z-VAD-FMK] (Cbz-Val-Ala-Asp(OMe)-CH2F),cisplatin- and camptothecin-mediated caspase cleavage,[9],inhibited cisplatin- as well as camptothecin-mediated caspase cleavage
same,effect on PES-mediated loss of cell viability,[10],did not alter PES-mediated loss of cell viability
"C=CCNC1=C2C[C@@H](C)C[C@H](OC)[C@H](O)[C@@H](C)/C=C(\C)[C@H](OC(N)=O)[C@@H](OC)/C=C\C=C(/C)C(=O)NC(=CC1=O)C2=O [17-AAG, 17-allylamino-17-demethoxygeldanamycin]",p62/SQSTM1 oligomers in soluble and detergent-insoluble fractions,[8],neither p62/SQSTM1 accumulation nor oligomerization was noted
same,activity of the 20S proteasome,[11],"little, if any, effect"
same,fate of HSP90 client proteins,[12],causes proteasome-mediated degradation of HSP90 client proteins
same,"overall cellular abundance of EGFR, HER2/ErbB2 and AKT","[12]; SKBR3 cells, detergent-soluble extracts, 24 h",reduction in the overall cellular abundance
"C[C@@H]1C[C@@H]([C@H](O)CC2CC(=O)NC(=O)C2)C(=O)[C@@H](C)C1 [CHX, cycloheximide]",PES-induced p62/SQSTM1 accumulation and oligomerization under co-treatment,[8]; co-treated with PES for 6 h,reduced the accumulation and oligomerization of the autophagy marker p62/SQSTM1
